Tests used:
[1] = molecular target: T1, Prostaglandin G/H synthase 1 (Ovis aries) (UniProt P05979); assay: Inhibition of ovine COX1 at 10 uM by ELISA
T1 sequence (whole entry): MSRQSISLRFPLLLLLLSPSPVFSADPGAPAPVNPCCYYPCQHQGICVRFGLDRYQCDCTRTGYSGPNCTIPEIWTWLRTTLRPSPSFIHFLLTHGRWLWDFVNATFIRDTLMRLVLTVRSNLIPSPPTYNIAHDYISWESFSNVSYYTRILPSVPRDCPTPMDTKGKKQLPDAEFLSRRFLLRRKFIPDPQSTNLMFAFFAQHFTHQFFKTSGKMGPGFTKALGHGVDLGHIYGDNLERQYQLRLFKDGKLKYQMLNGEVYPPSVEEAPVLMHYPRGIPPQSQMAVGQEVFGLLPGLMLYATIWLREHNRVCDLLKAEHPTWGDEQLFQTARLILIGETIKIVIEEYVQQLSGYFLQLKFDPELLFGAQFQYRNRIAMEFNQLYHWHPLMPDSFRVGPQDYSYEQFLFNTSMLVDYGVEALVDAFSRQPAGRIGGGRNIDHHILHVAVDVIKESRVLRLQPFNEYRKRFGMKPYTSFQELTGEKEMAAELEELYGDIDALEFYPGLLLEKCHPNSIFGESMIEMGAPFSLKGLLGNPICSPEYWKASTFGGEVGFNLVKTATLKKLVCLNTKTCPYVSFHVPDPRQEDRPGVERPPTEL

MDA-MB-231 = assay: cells; assay type: functional, cell-based; conditions: Homo sapiens, MDA-MB-231, 144 h
Description: Antiproliferative activity against human MDA-MB-231 cells assessed as growth inhibition after 144 hrs by crystal violet staining method

Mus musculus [2] = assay: Antiinflammatory activity in overnight fasted Kunming mouse assessed as inhibition of xylene-induced ear swelling at 4 mg/kg, ip administered before challenge for 5 days measured 1 hr post xylene challenge; assay type: functional; conditions: route intraperitoneal
MCF7 = assay: cells; assay type: functional, cell-based; conditions: Homo sapiens, MCF7, 144 h
Description: Antiproliferative activity against human MCF7 cells assessed as growth inhibition after 144 hrs by crystal violet staining method

HT-29 = assay: cells; assay type: functional, cell-based; conditions: Homo sapiens, HT-29, 144 h
Description: Antiproliferative activity against human HT-29 cells assessed as growth inhibition after 144 hrs by crystal violet staining method

Mus musculus [3] = assay: Antiinflammatory activity in overnight fasted Kunming mouse assessed as inhibition of xylene-induced ear swelling at 30 mg/kg, ip administered before challenge for 5 days measured 1 hr post xylene challenge; assay type: functional; conditions: route intraperitoneal

SMILES	inhibition [1] [%]	IC50 (MDA-MB-231) [µM]	inhibition in vivo at 4 mg/kg (Mus musculus [2]) [%]	IC50 (MCF7) [µM]	IC50 (HT-29) [µM]	inhibition in vivo at 30 mg/kg (Mus musculus [3]) [%]
CC(=O)Oc1ccccc1C(=O)O	29	–	–	–	–	–
S=C(NC1CCCCC1)N1CCC(=C2c3ccc(Cl)cc3CCc3cccnc32)CC1	11.6	8.1	30.4	5.1	6.2	–
O=c1[nH]cc(F)c(=O)[nH]1 [FLUOROURACIL]	–	–	–	4.7	–	–
Cc1ccccc1NC(=S)N1CCC(=C2c3ccc(Cl)cc3CCc3cccnc32)CC1	–	4.7	13	5.4	6.6	–
CC(C)Cc1ccc(C(C)C(=O)O)cc1 (stereo not drawn) [IBUPROFEN]	–	–	8.69	–	–	39.1
CCOC(=O)N1CCC(=C2c3ccc(Cl)cc3CCc3cccnc32)CC1 [LORATADINE]	–	8.4	–	7.5	6.2	–
S=C(Nc1ccccc1)N1CCC(=C2c3ccc(Cl)cc3CCc3cccnc32)CC1	–	6.4	21.7	5.6	6.7	–
COc1ccccc1NC(=S)N1CCC(=C2c3ccc(Cl)cc3CCc3cccnc32)CC1	–	10.4	21.7	7.6	9.2	–
CNC(=S)N1CCC(=C2c3ccc(Cl)cc3CCc3cccnc32)CC1	–	7.1	26.1	9.4	9.6	–

Source: ChEMBL document CHEMBL2021765, “Design and synthesis of thiourea derivatives containing a benzo[5,6]cyclohepta[1,2-b]pyridine moiety as potential antitumor and anti-inflammatory agents” (Bioorg Med Chem Lett, 2012)
